Our source for the CLint scaled values is ChEMBL document CHEMBL2176956, “Application of structure-based drug design and parallel chemistry to identify selective, brain penetrant, in vivo active phosphodiesterase 9A inhibitors” (J Med Chem, 2012).

The data set is described as follows: Clearance in human liver microsomes. The class given is ADME, Microsome. To be noted: read-out: CLH. (In general: Liver microsomes are vesicles of endoplasmic reticulum, rich in cytochrome P450 enzymes.)

Regarding `O=c1[nH]c(Cc2ccccc2)nc2c1cnn2C1CCCC1`, the CLint scaled stood at 200 mL/min/kg.
